From patent publication US5840684A, “Glycopeptide antibiotic derivatives” (Eli Lilly and Company, priority 1995, dated 1998)
≈ marks a conversion by molar mass, not a printed value.

Key:
[1] = tested on: vancomycin-resistant enterococci; assay: broth micro-dilution, mean geometric MIC; format: cell-based, Enterococcus faecium and Enterococcus faecalis; details: enterococci, 24-hour incubation
[2] = tested on: Staphylococcus aureus 489; assay: broth micro-dilution MIC; format: cell-based
Procedure: (§1) The MIC's were determined using a standard broth micro-dilution assay.

Entercoccus faecium 276 = assay: broth micro-dilution MIC; format: cell-based
Procedure: as §1

[3] = tested on: Streptococcus pyogenes C203; assay: broth micro-dilution MIC; format: cell-based
Procedure: as §1

[4] = tested on: Entercoccus faecium 180-1; assay: broth micro-dilution MIC; format: cell-based
Procedure: as §1

[5] = tested on: Staphylococcus aureus 447; assay: broth micro-dilution MIC; format: cell-based
Procedure: as §1

[6] = tested on: Staphylococcus aureus SA1199; assay: broth micro-dilution MIC; format: cell-based
Procedure: as §1

[7] = tested on: Streptococcus pneumoniae P1; assay: broth micro-dilution MIC; format: cell-based
Procedure: (§2) The formula I compounds have in vitro and in vivo activity against Gram-positive pathogenic bacteria. The MIC's were determined using a standard broth micro-dilution assay.

[8] = tested on: Staphylococcus haemolyticus 105; assay: broth micro-dilution MIC; format: cell-based
Procedure: as §2

[9] = tested on: Staphylococcus haemolyticus 415; assay: broth micro-dilution MIC; format: cell-based
Procedure: as §2

Entercoccus faecium 180 = assay: broth micro-dilution MIC; format: cell-based; details: Entercoccus faecium 180
Procedure: as §2

Entercoccus faecium 2041 = assay: broth micro-dilution MIC; format: cell-based; details: Entercoccus faecium 2041
Procedure: as §2

[10] = tested on: Enterococcus gallinarum 245; assay: broth micro-dilution MIC; format: cell-based; details: Enterococcus gallinarum 245
Procedure: as §2

[11] = tested on: Staphylococcus aureus S13E; format: cell-based
Procedure: as §1

[12] = tested on: Staphylococcus aureus X778; assay: broth micro-dilution MIC; format: cell-based
Procedure: as §1

[13] = tested on: Staphylococcus aureus 446; assay: broth micro-dilution MIC; format: cell-based
Procedure: as §1

[14] = tested on: Staphylococcus aureus SA1199A; assay: broth micro-dilution MIC; format: cell-based
Procedure: as §1

[15] = tested on: vancomycin-susceptible enterococci; assay: broth micro-dilution, mean geometric MIC; format: cell-based, Enterococcus faecium and Enterococcus faecalis; details: enterococci, 24-hour incubation
[16] = tested on: Staphylococcus epidermidis 270; assay: broth micro-dilution MIC; format: cell-based
Procedure: as §2

[17] = tested on: Staphylococcus aureus SA1199B; format: cell-based
Procedure: as §1

[18] = tested on: Staphylococcus aureus X400; assay: broth micro-dilution MIC; format: cell-based
Procedure: as §1

| SMILES | mean geometric MIC, Vancomycin Resistant Strains [1] [µg/mL] | MIC [2] [µg/mL] | MIC (Entercoccus faecium 276) [µg/mL] | MIC [3] [µg/mL] | MIC [4] [µg/mL] | MIC [5] [µg/mL] | MIC [6] [µg/mL] | MIC [7] [µg/mL] | MIC [8] [µg/mL] | MIC [9] [µg/mL] | MIC (Entercoccus faecium 180) [µg/mL] | MIC (Entercoccus faecium 2041) [µg/mL] | MIC [10] [µg/mL] | MIC [11] [µg/mL] | MIC [12] [µg/mL] | MIC [13] [µg/mL] | MIC [14] [µg/mL] | mean geometric MIC, Vancomycin Sensitive Strains [15] [µg/mL] | MIC [16] [µg/mL] | MIC [17] [µg/mL] | also measured |
| --- | --- | --- | --- | --- | --- | --- | --- | --- | --- | --- | --- | --- | --- | --- | --- | --- | --- | --- | --- | --- | --- |
| CNC(CC(C)C)C(=O)NC1C(=O)NC(CC(N)=O)C(=O)NC2C(=O)NC3C(=O)NC(C(=O)NC(C(=O)O)c4cc(O)cc(O)c4-c4cc3ccc4O)C(OC3CC(C)(N)C(O)C(C)O3)c3ccc(c(Cl)c3)Oc3cc2cc(c3OC2OC(CO)C(O)C(O)C2OC2CC(C)(NCc3ccc(C)c(C)c3)C(O)C(C)O2)Oc2ccc(cc2Cl)C1O (stereo not drawn) [Compound 76] | 8.0 | ≤ 0.06 | ≤ 0.06 | ≤ 0.06 | ≤ 0.06 | 0.5 (≈ 0.292 µM) | ≤ 0.06 | ≤ 0.06 | 2 (≈ 1.17 µM) | 4 (≈ 2.34 µM) | 0.5 (≈ 0.292 µM) | ≤ 0.06 | 4 (≈ 2.34 µM) |  |  |  |  |  |  |  |  |
| CNC(CC(C)C)C(=O)NC1C(=O)NC(CC(N)=O)C(=O)NC2C(=O)NC3C(=O)NC(C(=O)NC(C(=O)O)c4cc(O)cc(O)c4-c4cc3ccc4O)C(OC3CC(C)(N)C(O)C(C)O3)c3ccc(c(Cl)c3)Oc3cc2cc(c3OC2OC(CO)C(O)C(O)C2OC2CC(C)(NCCc3ccc(Oc4ccccc4)cc3)C(O)C(C)O2)Oc2ccc(cc2Cl)C1O (stereo not drawn) [Compound 33] | 2.8 | ≤ 0.06 | ≤ 0.06 |  | ≤ 0.06 |  | 1 (≈ 0.559 µM) |  | 2 (≈ 1.12 µM) | 8 (≈ 4.47 µM) | 2 (≈ 1.12 µM) | ≤ 0.06 |  | ≤ 0.06 | 0.5 (≈ 0.28 µM) | 4 (≈ 2.24 µM) | ≤ 0.06 | 0.18 | 2 (≈ 1.12 µM) |  |  |
| CNC(CC(C)C)C(=O)NC1C(=O)NC(CC(N)=O)C(=O)NC2C(=O)NC3C(=O)NC(C(=O)NC(C(=O)O)c4cc(O)cc(O)c4-c4cc3ccc4O)C(OC3CC(C)(N)C(O)C(C)O3)c3ccc(c(Cl)c3)Oc3cc2cc(c3OC2OC(CO)C(O)C(O)C2OC2CC(C)(NCc3ccc(Nc4ccccc4)cc3)C(O)C(C)O2)Oc2ccc(cc2Cl)C1O (stereo not drawn) [Compound 160] | 9.5 | 0.21 (≈ 0.118 µM) | 2 (≈ 1.13 µM) | ≤ 0.06 | ≤ 0.06 | 1 (≈ 0.564 µM) |  | ≤ 0.06 | 8 (≈ 4.51 µM) | 8 (≈ 4.51 µM) | 0.5 (≈ 0.282 µM) | ≤ 0.06 | 8 (≈ 4.51 µM) | 1 (≈ 0.564 µM) | 4 (≈ 2.26 µM) | 2 (≈ 1.13 µM) |  | 0.22 | 1 (≈ 0.564 µM) | ≤ 0.06 | MIC [18]: 4 µg/mL (≈ 2.26 µM) |
| CNC(CC(C)C)C(=O)NC1C(=O)NC(CC(N)=O)C(=O)NC2C(=O)NC3C(=O)NC(C(=O)NC(C(=O)O)c4cc(O)cc(O)c4-c4cc3ccc4O)C(OC3CC(C)(N)C(O)C(C)O3)c3ccc(c(Cl)c3)Oc3cc2cc(c3OC2OC(CO)C(O)C(O)C2OC2CC(C)(NCC3CCC(COCc4ccccc4)CC3)C(O)C(C)O2)Oc2ccc(cc2Cl)C1O (stereo not drawn) [Compound 239] | 2.8 | 0.5 (≈ 0.276 µM) |  |  | ≤ 0.06 | 0.5 (≈ 0.276 µM) | 0.5 (≈ 0.276 µM) | ≤ 0.06 | 1 (≈ 0.553 µM) | 1 (≈ 0.553 µM) | ≤ 0.06 | ≤ 0.06 | 1 (≈ 0.553 µM) | 0.5 (≈ 0.276 µM) |  | 1 (≈ 0.553 µM) | ≤ 0.06 | 0.095 |  | 0.5 (≈ 0.276 µM) |  |
| CNC(CC(C)C)C(=O)NC1C(=O)NC(CC(N)=O)C(=O)NC2C(=O)NC3C(=O)NC(C(=O)NC(C(=O)O)c4cc(O)cc(O)c4-c4cc3ccc4O)C(OC3CC(C)(N)C(O)C(C)O3)c3ccc(c(Cl)c3)Oc3cc2cc(c3OC2OC(CO)C(O)C(O)C2OC2CC(C)(NCc3ccc(Oc4ccc(Cl)cc4)cc3)C(O)C(C)O2)Oc2ccc(cc2Cl)C1O (stereo not drawn) [Compound 240] | 1.19 | 1 (≈ 0.553 µM) | 0.5 (≈ 0.276 µM) |  | ≤ 0.06 | 0.5 (≈ 0.276 µM) | 0.5 (≈ 0.276 µM) | ≤ 0.06 | 1 (≈ 0.553 µM) | 2 (≈ 1.11 µM) | ≤ 0.06 | ≤ 0.06 | 2 (≈ 1.11 µM) | 0.5 (≈ 0.276 µM) | 0.5 (≈ 0.276 µM) | 1 (≈ 0.553 µM) | ≤ 0.06 | 0.055 |  |  |  |
| CNC(CC(C)C)C(=O)NC1C(=O)NC(CC(N)=O)C(=O)NC2C(=O)NC3C(=O)NC(C(=O)NC(C(=O)O)c4cc(O)cc(O)c4-c4cc3ccc4O)C(OC3CC(C)(N)C(O)C(C)O3)c3ccc(c(Cl)c3)Oc3cc2cc(c3OC2OC(CO)C(O)C(O)C2OC2CC(C)(NCC3=CCC(C(C)C)CC3)C(O)C(C)O2)Oc2ccc(cc2Cl)C1O (stereo not drawn) [Compound 171] | 9.5 | 0.5 (≈ 0.289 µM) | 0.125 (≈ 0.0723 µM) | ≤ 0.06 | ≤ 0.06 | 1 (≈ 0.578 µM) |  | ≤ 0.06 | 4 (≈ 2.31 µM) | 8 (≈ 4.63 µM) | 1 (≈ 0.578 µM) | ≤ 0.06 | 8 (≈ 4.63 µM) | ≤ 0.06 | ≤ 0.06 | 1 (≈ 0.578 µM) | ≤ 0.06 | 0.22 | 1 (≈ 0.578 µM) |  | MIC [18]: ≤ 0.06 µg/mL |
| CNC(CC(C)C)C(=O)NC1C(=O)NC(CC(N)=O)C(=O)NC2C(=O)NC3C(=O)NC(C(=O)NC(C(=O)O)c4cc(O)cc(O)c4-c4cc3ccc4O)C(OC3CC(C)(N)C(O)C(C)O3)c3ccc(c(Cl)c3)Oc3cc2cc(c3OC2OC(CO)C(O)C(O)C2OC2CC(C)(NCc3ccc(Cl)c(C(=O)c4ccccc4)c3Cl)C(O)C(C)O2)Oc2ccc(cc2Cl)C1O (stereo not drawn) [Compound 133] | 4.0 | 1 (≈ 0.539 µM) | 1 (≈ 0.539 µM) | ≤ 0.06 | ≤ 0.06 | 1 (≈ 0.539 µM) |  | ≤ 0.06 | 2 (≈ 1.08 µM) | 2 (≈ 1.08 µM) | 1 (≈ 0.539 µM) |  | 2 (≈ 1.08 µM) | 1 (≈ 0.539 µM) | 2 (≈ 1.08 µM) | 2 (≈ 1.08 µM) |  | 0.13 | 1 (≈ 0.539 µM) | 2 (≈ 1.08 µM) | MIC [18]: 0.5 µg/mL (≈ 0.269 µM) |
